Test results reported in publication PMC8868285, “Pharmacological Inhibition of Epac1 Averts Ferroptosis Cell Death by Preserving Mitochondrial Integrity” (Antioxidants, 2022).

How the values were obtained:
[1] = system: HT-22 cells; assay: Brightfield images of cell morphology; type: cell-based, mouse
[2] = system: HT-22 cells; assay: Mitochondrial membrane potential, TMRE FACS
Method: (§2) Flow cytometry analysis using the CytoFLEXS benchtop flow cytometer (Beckman Coulter Life Sciences, Indianapolis, IN, USA) was used to evaluate intracellular parameters that are associated with not only oxidative stress but also mitochondrial dysfunction, and cell death. HT-22 cells (40,000 cells/well) seeded in 24-well plates were treated with various conditions. Treatment groups included: control condition (DMSO 1%), erastin 1 µM or 1.5 µM, CE3F4 100 µM, and co-treatment of erastin and CE3F4. Three separate wells were analyzed for each condition and the same number of counts (10,000/well) were measured by flow cytometry. At least three independent experiments were performed, and the Kaluza Analysis 1.5 software was employed for quantification of data.
Staining with TMRE™ dye (tetramethylrhodamine-ethyl ester; Invitrogen, Oregon City, OR, USA, #T669) was used to determine loss of mitochondrial membrane potential (MMP) (ΔΨm). […] Collected cells were incubated for 20 min with TMRE 0.2 μM at 37 °C. Fluorescence excitation and detection were done at 488 nm 690/50 nm respectively.

[3] = system: HT-22 cells; assay: Mitochondrial morphology (MitoTracker Deep Red, categories I-III); type: cell-based, mouse; settings: erastin 1 μM alone
Method: Mitochondrial morphology was assessed using imaging of HT-22 cells stained with MitoTracker™Deep Red FM (Invitrogen, Oregon City, OR, USA, #M22426). Cells were treated with either erastin 1 µM, CE3F4 100 µM, or co-treated with erastin 1 µM and CE3F4 100 μM for 18 h. After the treatment, cells were incubated with 200 nM MitoTracker™Deep Red FM for 30 min at 37 °C. Untreated cells were included as controls. 4% paraformaldehyde (PFA) was used for fixation and detection of the MitoTracker fluorescence was achieved by 620 nm (excitation) and 700 ± 75 nm (detection). 500 cells per condition were counted and grouped into three different categories, based on their mitochondrial morphology/shape. The analysis and categorization of mitochondria was done by an investigator without previous knowledge of the various experimental conditions. Category I included healthy cells with mitochondria that form an elongated tubular network that is distributed equally throughout the cytosol. It could also include short mitochondria, but distributed in the cytosol. On the other hand, Category II included cells which contained large, and fragmented/granulated mitochondria around the nucleus. […] Category III represented damaged and dying cells with observed small rounded mitochondria of varying sizes and in proximity to the nucleus.. At least three independent experiments were performed.

[4] = system: HT-22 cells; assay: Cell death assessment, FACS analysis of PI staining; settings: erastin 1 μM alone
Method: as §2
The amount of cell death after stimulation with erastin for 16–17 h was assessed by incubating trypsonized HT-22 cell suspension with propidium iodide (PI) (Invitrogen, Oregon City, OR, USA, #V13242, Lot #2008168) in a binding buffer. Incubation with the dye was for 30 min at RT. Fluorescence was detected at 494/518 and 535/617 for FITC and PI respectively.

[5] = system: HT-22 cells; assay: MTT cell viability assay; type: cell-based, mouse
Method: (§1) Cell viability and metabolic activity of cells was first assessed using a colorimetric 3-(4,5-dimethylthiazol-2-yl)-2,5-diphenyltetrazolium Bromide (MTT) (Sigma–Aldrich Chemie GmbH, Steinheim, Germany, #M5655) reduction assay. Cells in a 96-well plate format (8–10,000 cells/well) were incubated with the MTT solution (0.5 mg/mL) for a maximum of 1 h at 37 °C. Afterward, the MTT-containing solution was entirely removed, and the 96-well plate was incubated at −80 °C for at least 2 h. To allow formazan to uniformly disperse in the medium, dimethyl sulfoxide (DMSO) (Sigma–Aldrich Chemie GmbH, Steinheim, Germany, #D8418, Lot# SHBH9942) was administered to the cells for 1 h at 37 °C with continuous shaking. The absorbance values were determined by Synergy™H1 (Bad Friedrichshall, Germany) Hybrid MultiMode Reader at 570 nm with a 630 nm reference filter. The absorbance values of untreated healthy cells or cells treated with DMSO 1% (used as a solvent for various pharmacological applications) were regarded as 100% of cell viability. […] HT-22 cells were treated with the following conditions: control condition (solvent), drug of interest, erastin, and pre- or co-treatment with erastin and drug of interest. Cells as appropriate were pre-treated for 30 min with the drug of interest before the addition of erastin. xCELLigence ®RTCA MP system (ACEA BIO, Amsterdam, The Netherlands) was used to measure cell impedance in real time. The xCELLigence ®RTCA MP system is a label-free real-time cell-based assay, suitable for continuous monitoring of alteration/modifications of the morphology of cells. Continuous cell monitoring was performed by using an E-plate 96 and the cellular impedance or cell resistance was assessed every 15 min for 24 h.

[6] = system: HT-22 cells; assay: Extracellular flux analysis (Seahorse), oxygen consumption rate; type: cell-based, mouse
Method: Cellular Oxygen Consumption Rate (OCR) was measured by using an XFe96 extracellular flux analyzer (Seahorse Bioscience, Billerica, MA, USA) which also entailed the mitochondrial stress test as described previously. HT-22 cells (10,000 cells/well) were seeded onto the XFe96-well cell culture microplate and incubated at 37 °C, 5% CO2. 24 h before the assay, the growth medium was replaced with a fresh medium containing either DMSO 1%, erastin 1 µM, CE3F4 alone, ESI-05 alone or a co-treatment of erastin with either CE3F4 or ESI-05. Cells in 180 μL of assay non-buffered DMEM medium supplemented with 2 mM glutamine, 4.5 g/L glucose and 1 mM pyruvate, pH 7.35 were incubated for 1 h in a CO2 free incubator at 37 °C. Basal respiration was measured before injecting the inhibitors that included; oligomycin (4 μM; port A)—an ATP synthase inhibitor; 2,4-dinitrophenol (DNP) (Sigma–Aldrich Chemie GmbH, Steinheim, Germany, #34334) (50 μM; port B)—a mitochondrial oxidative phosphorylation uncoupler; and rotenone (Sigma–Aldrich Chemie GmbH, Steinheim, Germany, #R8875) together with antimycin A (Sigma–Aldrich Chemie GmbH, Steinheim, Germany, #A8674) 0.1 μM and 1 μM; port C)—complex I and complex III inhibitors. By using the BCA assay, OCR measurements were normalized to the protein amount in every well. Three independent experiments with six wells per condition were performed, and a one-way ANOVA test was used to determine statistical significance among different groups.

[7] = system: HT-22 cells; assay: Soluble ROS, CM-DCF FACS; type: cell-based, mouse
Method: Soluble ROS was evaluated by CM-DCF fluorescent dye (Invitrogen, Oregon City, OR, USA). CM-DCF passively diffuses into cells, and reacts with glutathione and other thiols following cleavage by intracellular esterases, which in turn exposes the thiol-reactive chloromethyl group. The oxidation that follows results in a fluorescent adduct that is ensnared within the cell. The higher the fluorescence, the more cellular ROS is produced in the cells.

[8] = system: HT-22 cells; assay: Lipid peroxidation, BODIPY FACS; settings: erastin 1 μM alone, 4 h
Method: as §2
The staining dye BODIPY 2 μM (Invitrogen, Karlsruhe, Germany, # D3861, Lot # 1890330) was used to estimate lipid peroxidation. Erastin treatment was done for 4 h. HT-22 cells were then stained for 30 min at RT, followed by a one-time wash with PBS and finally analyzed. Fluorescence excitation and detection were done at 488 nm and 530 nm respectively.

[9] = system: HT-22 cells; assay: xCELLigence real-time cell impedance measurement; type: cell-based, mouse; settings: erastin alone, dose response
Method: as §1, with “Cells as appropriate were pre-treated for 30 min with the drug of interest before the addition of erastin. xCELLigence ®RTCA MP system (ACEA BIO, Amsterdam, The Netherlands) was used to measure cell impedance in real time. The xCELLigence ®RTCA MP system is a label-free real-time cell-based assay, suitable for continuous monitoring of alteration/modifications of the morphology of cells.” left out

[10] = system: HT-22 cells; assay: Mitochondrial superoxide, MitoSOX FACS
Method: as §2
MitoSOX dye (Invitrogen, Oregon City, OR, USA, #M36008, Lot#1924466) was used to evaluate mitochondrial ROS. The MitoSOX dye is able to permeate live cells and also selectively target mitochondria where it is swiftly oxidized by superoxides but not by other reactive oxygen species. […] Incubation of HT-22 cells with MitoSOX™ 1.25 μM dye was done for 30 min at 37 °C. Fluorescence excitation and detection were done at 488 nm and 690/50 nm respectively.

[11] = system: retinal glial cells (RGC); set-up: method as in PMID 31918438; settings: cited from earlier work
[12] = system: Epac; set-up: method as in BioLog, Cat.No. C 041; settings: no literature reference printed; ref BioLog, Cat.No. C 041; cited from earlier work
[13] = system: secondary brain injury induced by intracerebral hemorrhage; set-up: method as in PMID 30607901; settings: cited from earlier work
[14] = system: isolated mitochondria from HT-22 cells; assay: High-resolution respirometry (Oroboros) of isolated mitochondria; set-up: species or system mouse
Method: Mitochondria were isolated from harvested HT-22 cells (4–8 × 10^7 cultivated in T75 flasks) using a semi-automated pump-controlled cell rupture system (PCC) (0.71 mL/min) with syringes (SGE, Trajan© Scientific, Ringwood, Australia) attached to a cell homogenizer (Isobiotech, EMBL, Heidelberg, Germany) (bead size of 10 μm suitable for HT-22 cells) and superimposed on a pump (ProSense B.V, Oosterhout, The Netherlands, #NE1000). Collected samples were centrifuged at 800 rpm for 10 min at 4 °C. The supernatant was further centrifuged at 9000× g for 10 min at 4 °C. The resulting pellet was the crude mitochondria. Finally, the mitochondria were suspended in an isolation buffer (HEPES 20 mM, sucrose 250 mM EDTA 3 mM, pH 7.5) for subsequent experiments. The whole procedure was executed on ice.
The protein concentration of isolated mitochondria was determined using the Pierce™ BCA Protein Assay Kit (Pierce™ BCA Protein Assay Kit, Thermo Scientific, Rockford, IL, USA, #23225). Respiration of the isolated mitochondria from HT-22 cells was analyzed using the high-resolution respirometry oxygraph O2K (Oroboros Systems, Innsbruck, Austria). The isolated mitochondria (200 μg) prepared as previously described, were treated with either CE3F4, ESI-05, ethanol, or DMSO as appropriate for 25 min, followed by mitochondrial respiration measurements. Mitochondrial state 1 was determined by continuous stirring at 750 rpm in 1 mL of MiR05 buffer (MgCl2 3 mM, lactobionic acid 60 mM, EGTA 0.5 mM taurine 20 mM, KH2PO4 10 mM, D-Sucrose 110 mM, HEPES 20 mM, BSA, essential fatty acid-free1 g/L, pH adjusted to 7.4). DatLab software (Oroboros Systems, Innsbruck, Austria) was used to record real-time oxygen flux per tissue mass (pmol O2. s^−1 × mg^−1) at 37 °C and to perform oxygen polarography. States were described as, State 2: a non-phosphorylating respiration state which was assessed by addition of complex-I linked substrates, 5 mM pyruvate (Sigma–Aldrich Chemie GmbH, Steinheim, Germany #P-2256), and 2 mM malate (Sigma–Aldrich Chemie GmbH, Steinheim, Germany, #374318); State 3: the oxidative-phosphorylation capacity (OXPHOS) state, of complex-I linked activity or basal respiration was achieved by adding a saturating concentration of 0.8 mM ADP (Sigma–Aldrich Chemie GmbH, Steinheim, Germany, #A5285), this allowed for calculation of ADP-coupled repiration; State 4: Achieved by subsequent addition of oligomycin 0.1 μM/mL (Sigma–Aldrich Chemie GmbH, Steinheim, Germany, #O4876) following state 3, oligomycin blocks the ATP-synthase, thereby inhibiting proton passage; State 3U: Was assessed by incremental steps of 1 μM addition of FCCP—theprotonophore carbonyl cyanide 4-(trifluoromethoxy) phenylhydrazone (Sigma–Aldrich Chemie GmbH, Steinheim, Germany, #C2920), this allowed the calculation of the reserve capacity of the Electron Transport Chain (ETC); Finally, sodium dithionite (DTT, Sigma–Aldrich Chemie GmbH, Steinheim, Germany, #15,795-3) was added to reduce all residual oxygen that was present in the chamber and to calibrate the oxygen content in the chamber. The O2 slope (pmol × (mL/s)) of isolated mitochondria was the oxygen concentration and also the initial derivate of the oxygen concentration—a derivative of oxygen consumption. Measurements were recorded in intervals of 2 s by using a background correction after calibration of the polarographic oxygen sensors.

[15] = system: traumatic brain injury; set-up: method as in PMID 29740274; settings: cited from earlier work
[16] = system: Epac2; settings: ESI-05, Epac2 inhibitor; cited from earlier work

CCOc1ccccc1-n1c(C(C)N2CCN(C(=O)COc3ccc(Cl)cc3)CC2)nc2ccccc2c1=O (stereo not shown) [erastin]
cell morphology ([1]; erastin 1 μM alone): marked alteration in cell morphology
mitochondrial membrane potential (ΔΨm) ([2]; erastin 1 μM alone): significant loss of ΔΨm
mitochondrial membrane potential (ΔΨm) ([2]; erastin 1.5 μM alone): significant loss of ΔΨm
mitochondrial morphology [3]: induced pronounced mitochondrial fragmentation
cell death (PI staining) [4]: augmented cell death
cell death (MTT cell viability) ([5]; erastin alone, dose response): dose-dependent cell death
mitochondrial respiration (OCR) ([6]; erastin 1 μM vs untreated or solvent-treated controls): significant decrease in mitochondrial respiration
ROS level (CM-DCF) ([7]; erastin 1 μM alone): significantly increased
ROS level (CM-DCF) ([7]; erastin 1.5 μM alone): significantly increased
lipid peroxidation [8]: increased
cell death (real-time cell impedance) [9]: dose-dependent cell death
mitochondrial superoxide levels ([10]; erastin 1 μM alone): significant increase and shift towards high ROS levels
mitochondrial superoxide levels ([10]; erastin 1.5 μM alone): significant increase and shift towards high ROS levels

CO[C@@H]1[C@@H]2OP(=O)(OCOC(C)=O)OC[C@H]2O[C@H]1n1c(Sc2ccc(Cl)cc2)nc2c(N)ncnc21 (stereo partly shown) [8-pCPT-2-O-Me-cAMP-AM]
effect on RGC [11]: neurotoxic effects

CO[C@@H]1[C@@H]2OP(=O)(O)OC[C@H]2O[C@H]1n1c(Sc2ccc(Cl)cc2)nc2c(N)ncnc21 [8-PCPT-2-O-Me-cAMP]
AC50 [12]: 1800 nM
neuroprotection against erastin-induced ferroptosis (MTT) ([5]; 8-pCPT 10–100 μM): did not mediate neuroprotection

Cc1ccc(S(=O)(=O)c2c(C)cc(C)cc2C)cc1 [ESI-05]
neuroprotection against erastin-induced ferroptosis (bright-field microscopy images) ([1]; ESI-05 30 μM + erastin 1 μM): did not mediate neuroprotection
secondary brain injury induced by intracerebral hemorrhage [13]: suppressed secondary brain injury
respiration rate after inhibition of ETC complex V (state 4) ([14]; 10 μM ESI-05): significantly increased
mitochondrial respiration ([14]; ESI-05 30 μM): does not affect mitochondria respiration
neural cell apoptosis after traumatic brain injury [15]: decreased neural cell apoptosis
neurological deficits after traumatic brain injury [15]: improved other neurological deficits
neuroprotection against erastin-induced ferroptosis (MTT) ([5]; 100 μM ESI-05 with lower concentrations of erastin): did not mediate neuroprotection
neuroprotection against erastin-induced ferroptosis (MTT) ([5]; ESI-05 3–30 μM): did not mediate neuroprotection
mitochondrial respiration (OCR) ([6]; 30 μM ESI-05 + erastin 1 μM vs erastin alone): did not induce any significant difference
IC50 [16]: 400 nM

CC(C)(C)c1cc(C(=O)/C(C#N)=N/Nc2cccc(Cl)c2)no1 [ESI-09]
effect on RGC [11]: neuroprotective
neuroprotection against erastin-induced ferroptosis (MTT) ([5]; ESI-09, 30 μM): dose-dependent neuroprotection
